Reference: publication PMC12336832, “A key loop in the catalytic pocket of the PL17 family of alginate lyases determines minimal substrate recognition” (The Journal of Biological Chemistry, 2025)

Tests used:
VaAly17B = target: T1, VaAly17B (Vibrio alginolyticus, UniProt A0A2I3CRW2); test: TBA assay, TLC, gel filtration HPLC, ESI-MS; assay type: biochemical; conditions: pH 8.0, 200 mM NaCl, 20 °C, 0.3% substrate
T1 construct: gene N646_4460; N-terminal His tag, E. coli BL21(DE3), plasmid pZLZ05; no signal peptide predicted; theoretical 81,023 Da
T1 sequence (A0A2I3CRW2 1-721): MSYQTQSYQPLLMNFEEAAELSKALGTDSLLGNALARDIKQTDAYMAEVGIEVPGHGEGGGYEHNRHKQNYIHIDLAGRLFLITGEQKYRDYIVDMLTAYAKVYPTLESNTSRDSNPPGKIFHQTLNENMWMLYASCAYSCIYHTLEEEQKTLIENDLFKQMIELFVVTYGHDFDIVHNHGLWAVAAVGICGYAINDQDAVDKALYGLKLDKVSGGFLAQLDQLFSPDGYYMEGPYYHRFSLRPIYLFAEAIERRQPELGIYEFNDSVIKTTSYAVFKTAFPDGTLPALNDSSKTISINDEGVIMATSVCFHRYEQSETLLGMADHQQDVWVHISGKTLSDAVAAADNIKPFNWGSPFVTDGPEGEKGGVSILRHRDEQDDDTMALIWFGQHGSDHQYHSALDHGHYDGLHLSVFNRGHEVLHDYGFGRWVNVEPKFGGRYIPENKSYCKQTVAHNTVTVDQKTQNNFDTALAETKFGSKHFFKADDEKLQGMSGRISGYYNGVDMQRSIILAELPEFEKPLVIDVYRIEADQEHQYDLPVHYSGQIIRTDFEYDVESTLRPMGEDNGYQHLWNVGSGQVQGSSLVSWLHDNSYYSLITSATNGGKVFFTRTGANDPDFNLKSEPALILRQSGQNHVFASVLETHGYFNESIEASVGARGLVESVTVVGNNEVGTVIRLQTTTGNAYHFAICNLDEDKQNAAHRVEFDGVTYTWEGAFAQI

VaAly17A = target: T2, VaAly17A (Vibrio alginolyticus, UniProt A0A2I3CRJ2); test: TBA assay, TLC, gel filtration HPLC, ESI-MS; assay type: biochemical; conditions: pH 8.0, 200 mM NaCl, 30 °C, 0.3% substrate; exolytic, from the nonreducing end
T2 construct: gene N646_4459; N-terminal His tag, E. coli BL21(DE3), plasmid pZLZ04; no signal peptide predicted; theoretical 81,525 Da
T2 sequence (A0A2I3CRJ2 1-721): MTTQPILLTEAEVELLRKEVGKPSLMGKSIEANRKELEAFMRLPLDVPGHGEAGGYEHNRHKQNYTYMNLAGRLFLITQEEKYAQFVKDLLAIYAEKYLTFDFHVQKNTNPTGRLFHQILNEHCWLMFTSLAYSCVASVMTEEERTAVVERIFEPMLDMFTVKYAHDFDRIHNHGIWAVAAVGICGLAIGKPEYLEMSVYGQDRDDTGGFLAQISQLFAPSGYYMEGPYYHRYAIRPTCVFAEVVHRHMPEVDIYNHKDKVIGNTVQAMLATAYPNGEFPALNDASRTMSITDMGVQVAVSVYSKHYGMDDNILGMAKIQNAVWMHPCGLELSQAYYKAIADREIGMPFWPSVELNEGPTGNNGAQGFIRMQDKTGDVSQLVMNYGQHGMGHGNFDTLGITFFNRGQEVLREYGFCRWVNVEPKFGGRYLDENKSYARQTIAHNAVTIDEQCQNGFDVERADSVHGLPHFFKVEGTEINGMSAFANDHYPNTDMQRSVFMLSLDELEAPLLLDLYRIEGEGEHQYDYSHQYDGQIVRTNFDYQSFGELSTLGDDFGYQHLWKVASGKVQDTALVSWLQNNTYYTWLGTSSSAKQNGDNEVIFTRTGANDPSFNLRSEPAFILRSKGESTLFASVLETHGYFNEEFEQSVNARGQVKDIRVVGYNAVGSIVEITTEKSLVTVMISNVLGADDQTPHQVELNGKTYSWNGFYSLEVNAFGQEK

`O=C(O)[C@H]1O[C@@H](O[C@H]2[C@H](O)[C@H](O)C(O)O[C@@H]2C(=O)O)[C@@H](O)[C@@H](O)[C@@H]1O` (some centres unmarked) [M2, Dimer-M2] was tested, and the specific activity (VaAly17B) was “VaAly17B could degrade M2 into monomers”.

`O=C(O)[C@H]1O[C@@H](O[C@H]2[C@H](O)[C@H](O)[C@H](O[C@H]3[C@H](O)[C@H](O)C(O)O[C@@H]3C(=O)O)O[C@@H]2C(=O)O)[C@@H](O)[C@@H](O)[C@@H]1O` (some centres unmarked) [M3, Trimer-M3] was tested, and the specific activity (VaAly17A) was “unsaturated M2 was produced when M3 was used as the substrate”.
